Laboratory results published in the supplement of paper PMC13207355.

Assays:
Conditions in all cases: exposure time: 72 h
E13 [1] = patient-derived glioblastoma stem cells of classical subtype; assay: surviving fraction (nuclei count normalised to DMSO); higher = more cells surviving (less toxic)
E31 [2] = patient-derived glioblastoma stem cells of proneural subtype; assay: as above
FT3469 [3] = normal neural stem cell line; assay: as above
E34 [4] = patient-derived glioblastoma stem cells of proneural subtype; assay: as above
E57 [5] = patient-derived glioblastoma stem cells of mesenchymal subtype; assay: as above
E21 [6] = patient-derived glioblastoma stem cells of mesenchymal subtype; assay: as above
E28 [7] = patient-derived glioblastoma stem cells of classical subtype; assay: as above
E13 [8] = assay: phenotypic distance (Euclidean, principal components) from DMSO controls (arbitrary units); higher = stronger morphological change
E31 [9] = assay: as above
FT3469 [10] = assay: as above
E34 [11] = assay: as above
E57 [12] = assay: as above
E21 [13] = assay: as above
E28 [14] = assay: as above
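Throughout, for phenotypic distance (Euclidean, principal components) from DMSO controls: cell Painting imaging in 384-well plates, CellProfiler features reduced to at least 20 principal components, Euclidean distance versus same-plate DMSO vehicle wells (0.1% v/v), median over six images per well.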
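Throughout, for surviving fraction (nuclei count normalised to DMSO): nuclei counted by high-content imaging of Hoechst-stained cells in laminin-coated 384-well plates, relative to 0.1% DMSO vehicle wells, with staurosporine as cell-death control.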

CC(C)C[C@H](NC(=O)CNC(=O)c1cc(Cl)ccc1Cl)B(O)O [Ixazomib]
Conditions	phenotypic distance	surviving fraction
E13 [1], 4.1 nM	–	0.298
E13 [1], 12.3 nM	–	0.0451
E13 [1], 37 nM	–	0.0121
E13 [1], 111.1 nM	–	0.013
E13 [1], 333.3 nM	–	0.0174
E13 [1], 1000 nM	–	0.0252
E13 [1], 3000 nM	–	0.00174
E13 [8], 4.1 nM	4.64	–
E13 [8], 12.3 nM	9.62	–
E13 [8], 37 nM	17.4	–
E13 [8], 111.1 nM	10.6	–
E13 [8], 333.3 nM	11.8	–
E13 [8], 1000 nM	8.11	–
E13 [8], 3000 nM	11.2	–
E21 [6], 4.1 nM	–	0.275
E21 [6], 12.3 nM	–	0.0747
E21 [6], 37 nM	–	0.0159
E21 [6], 111.1 nM	–	0.0149
E21 [6], 333.3 nM	–	0.0187
E21 [6], 1000 nM	–	0.0308
E21 [6], 3000 nM	–	0.00187
E21 [13], 4.1 nM	6.82	–
E21 [13], 12.3 nM	7.74	–
E21 [13], 37 nM	11.3	–
E21 [13], 111.1 nM	9.17	–
E21 [13], 333.3 nM	11.6	–
E21 [13], 1000 nM	10.7	–
E21 [13], 3000 nM	14.7	–
E28 [7], 4.1 nM	–	0.582
E28 [7], 12.3 nM	–	0.296
E28 [7], 37 nM	–	0.14
E28 [7], 111.1 nM	–	0.149
E28 [7], 333.3 nM	–	0.0863
E28 [7], 1000 nM	–	0.102
E28 [7], 3000 nM	–	0.0701
E28 [14], 4.1 nM	2.24	–
E28 [14], 12.3 nM	3.91	–
E28 [14], 37 nM	4.89	–
E28 [14], 111.1 nM	4.69	–
E28 [14], 333.3 nM	6.98	–
E28 [14], 1000 nM	6.52	–
E28 [14], 3000 nM	5.85	–
E31 [2], 4.1 nM	–	0.365
E31 [2], 12.3 nM	–	0.223
E31 [2], 37 nM	–	0.0335
E31 [2], 111.1 nM	–	0.0134
E31 [2], 333.3 nM	–	0.0218
E31 [2], 1000 nM	–	0.0402
E31 [2], 3000 nM	–	0.00669
E31 [9], 4.1 nM	3.6	–
E31 [9], 12.3 nM	5.68	–
E31 [9], 37 nM	7.85	–
E31 [9], 111.1 nM	7.57	–
E31 [9], 333.3 nM	8.35	–
E31 [9], 1000 nM	9.03	–
E31 [9], 3000 nM	17.2	–
E34 [4], 4.1 nM	–	0.609
E34 [4], 12.3 nM	–	0.423
E34 [4], 37 nM	–	0.163
E34 [4], 111.1 nM	–	0.126
E34 [4], 333.3 nM	–	0.0695
E34 [4], 1000 nM	–	0.0659
E34 [4], 3000 nM	–	0.0494
E34 [11], 4.1 nM	2.17	–
E34 [11], 12.3 nM	4.29	–
E34 [11], 37 nM	6.54	–
E34 [11], 111.1 nM	7.64	–
E34 [11], 333.3 nM	9.65	–
E34 [11], 1000 nM	10.2	–
E34 [11], 3000 nM	10.4	–
E57 [5], 4.1 nM	–	0.118
E57 [5], 12.3 nM	–	0.0366
E57 [5], 37 nM	–	0.00889
E57 [5], 111.1 nM	–	0.00993
E57 [5], 333.3 nM	–	0.00889
E57 [5], 1000 nM	–	0.0105
E57 [5], 3000 nM	–	0.00366
E57 [12], 4.1 nM	8.41	–
E57 [12], 12.3 nM	11.9	–
E57 [12], 37 nM	11	–
E57 [12], 111.1 nM	10.2	–
E57 [12], 333.3 nM	10.1	–
E57 [12], 1000 nM	9.67	–
E57 [12], 3000 nM	7.76	–
FT3469 [3], 4.1 nM	–	0.583
FT3469 [3], 12.3 nM	–	0.704
FT3469 [3], 37 nM	–	0.371
FT3469 [3], 111.1 nM	–	0.386
FT3469 [3], 333.3 nM	–	0.297
FT3469 [3], 1000 nM	–	0.239
FT3469 [3], 3000 nM	–	0.103
FT3469 [10], 4.1 nM	2.53	–
FT3469 [10], 12.3 nM	2.8	–
FT3469 [10], 37 nM	4.87	–
FT3469 [10], 111.1 nM	6.47	–
FT3469 [10], 333.3 nM	6.55	–
FT3469 [10], 1000 nM	7.04	–
FT3469 [10], 3000 nM	7.74	–

COc1cccc2c1C(=O)c1c(O)c3c(c(O)c1C2=O)C[C@@](O)(C(=O)CO)C[C@@H]3O[C@H]1C[C@H](N)[C@H](O[C@@H]2CCCCO2)[C@H](C)O1 [Pirarubicin]
Conditions	phenotypic distance	surviving fraction
E13 [1], 4.1 nM	–	0.384
E13 [1], 12.3 nM	–	0.325
E13 [1], 37 nM	–	0.263
E13 [1], 111.1 nM	–	0.0805
E13 [1], 333.3 nM	–	0.1
E13 [1], 1000 nM	–	0.0786
E13 [1], 3000 nM	–	0.0218
E13 [8], 4.1 nM	5.19	–
E13 [8], 12.3 nM	5.1	–
E13 [8], 37 nM	4.19	–
E13 [8], 111.1 nM	5.27	–
E13 [8], 333.3 nM	5.59	–
E13 [8], 1000 nM	5.06	–
E13 [8], 3000 nM	6.07	–
E21 [6], 4.1 nM	–	0.251
E21 [6], 12.3 nM	–	0.305
E21 [6], 37 nM	–	0.194
E21 [6], 111.1 nM	–	0.13
E21 [6], 333.3 nM	–	0.0649
E21 [6], 1000 nM	–	0.0703
E21 [6], 3000 nM	–	0.0202
E21 [13], 4.1 nM	5.11	–
E21 [13], 12.3 nM	7.13	–
E21 [13], 37 nM	6.25	–
E21 [13], 111.1 nM	6.76	–
E21 [13], 333.3 nM	7.24	–
E21 [13], 1000 nM	6.47	–
E21 [13], 3000 nM	9.02	–
E28 [7], 4.1 nM	–	0.322
E28 [7], 12.3 nM	–	0.276
E28 [7], 37 nM	–	0.244
E28 [7], 111.1 nM	–	0.14
E28 [7], 333.3 nM	–	0.347
E28 [7], 1000 nM	–	0.209
E28 [7], 3000 nM	–	0.0681
E28 [14], 4.1 nM	4.14	–
E28 [14], 12.3 nM	4.17	–
E28 [14], 37 nM	4.19	–
E28 [14], 111.1 nM	5.37	–
E28 [14], 333.3 nM	4.96	–
E28 [14], 1000 nM	5.04	–
E28 [14], 3000 nM	4.01	–
E31 [2], 4.1 nM	–	0.141
E31 [2], 12.3 nM	–	0.184
E31 [2], 37 nM	–	0.101
E31 [2], 111.1 nM	–	0.058
E31 [2], 333.3 nM	–	0.107
E31 [2], 1000 nM	–	0.0565
E31 [2], 3000 nM	–	0.0104
E31 [9], 4.1 nM	3.76	–
E31 [9], 12.3 nM	3.17	–
E31 [9], 37 nM	4.87	–
E31 [9], 111.1 nM	6.24	–
E31 [9], 333.3 nM	4.82	–
E31 [9], 1000 nM	7.62	–
E31 [9], 3000 nM	10.2	–
E34 [4], 4.1 nM	–	0.51
E34 [4], 12.3 nM	–	0.559
E34 [4], 37 nM	–	0.488
E34 [4], 111.1 nM	–	0.527
E34 [4], 333.3 nM	–	0.331
E34 [4], 1000 nM	–	0.488
E34 [4], 3000 nM	–	0.214
E34 [11], 4.1 nM	3.49	–
E34 [11], 12.3 nM	3.06	–
E34 [11], 37 nM	2.17	–
E34 [11], 111.1 nM	4.14	–
E34 [11], 333.3 nM	2.6	–
E34 [11], 1000 nM	3.14	–
E34 [11], 3000 nM	5.46	–
E57 [5], 4.1 nM	–	0.226
E57 [5], 12.3 nM	–	0.199
E57 [5], 37 nM	–	0.176
E57 [5], 111.1 nM	–	0.106
E57 [5], 333.3 nM	–	0.126
E57 [5], 1000 nM	–	0.122
E57 [5], 3000 nM	–	0.0208
E57 [12], 4.1 nM	7.85	–
E57 [12], 12.3 nM	8.69	–
E57 [12], 37 nM	8.43	–
E57 [12], 111.1 nM	8.17	–
E57 [12], 333.3 nM	5.64	–
E57 [12], 1000 nM	5.25	–
E57 [12], 3000 nM	7.33	–
FT3469 [3], 4.1 nM	–	0.631
FT3469 [3], 12.3 nM	–	0.549
FT3469 [3], 37 nM	–	0.534
FT3469 [3], 111.1 nM	–	0.31
FT3469 [3], 333.3 nM	–	0.381
FT3469 [3], 1000 nM	–	0.354
FT3469 [3], 3000 nM	–	0.144
FT3469 [10], 4.1 nM	2.41	–
FT3469 [10], 12.3 nM	2.29	–
FT3469 [10], 37 nM	3.24	–
FT3469 [10], 111.1 nM	6.3	–
FT3469 [10], 333.3 nM	5.37	–
FT3469 [10], 1000 nM	5.38	–
FT3469 [10], 3000 nM	7.66	–
